Laboratory results as given in the OPERA property sets (Mansouri et al. 2018).
In brackets after ≈: the same amount, converted by molar mass.

Row | Compound | logP | solubility
1 | C[Si]1(C)O[Si](C)(C)O[Si](C)(C)O[Si](C)(C)O[Si](C)(C)O[Si](C)(C)O1 | 9.06 | 
2 | OC(CN1C2CCCC21)Cn1ccnc1 (stereo not given) | 0.37 | 
3 | Nc1ncnc2c1ncn2C1OC2COP(=O)(OCc3ccccc3)OC2C1O (stereo not given) | 1.15 | 
4 | COc1ccc(Nc2ccnc3cc(Cl)ccc23)cc1 | 4.94 | 
5 | CNS(=O)(=O)c1ccc(Cl)cc1 | 1.92 | 
6 | C[Si]1(C)O[Si](C)(C)O[Si](C)(C)O[Si](C)(C)O1 | 6.74 | 
7 | Cc1nc(N)nc(C(Cl)(Cl)Cl)n1 | 1.77 | 
8 | Nc1cccc2cccc(N)c12 | 1.78 | 
9 | CCNC(=S)NCC | 0.57 | 
10 | O=C(O)COc1cccc2ccccc12 | 2.6 | 
11 | Nc1nc(=O)n([C@H]2CC[C@@H](CO)O2)cc1Br | -0.5 | 
12 | CCC(O)(C(=O)O)c1ccc(CC(C)C)cc1 (stereo not given) | 3.37 | 
13 | Clc1ccc(Cl)nn1 | 0.7 | 
14 | Cc1nc2ccc([N+](=O)[O-])cc2[nH]1 | 1.94 | 
15 | C=CC(=O)NCCN(C)C | -0.25 | 
16 | Cc1cc(Br)cc(C)c1C#[N+][O-] | 3.63 | 
17 | O=C(OCc1ccccc1)c1ccc(O)cc1 | 3.56 | 
18 | CN1CC=C(c2cccc(N)c2)CC1 | 1.47 | 
19 | CCCn1ccc(=O)c(O)c1 | -0.17 | 
20 | COC1=C(OC)C(=O)C(C)=CC1=O | 0.8 | 
21 | OCC1CC(F)C(n2cnc3c(Cl)ncnc32)O1 (stereo not given) | 0.32 | 
22 | CN(C)CCCN1c2ccccc2S(=O)c2ccc(Cl)cc21 (stereo not given) | 2.32 | 
23 | CC(CCC(=O)NCC(=O)O)C1CCC2C3C(O)CC4CC(O)CCC4(C)C3CCC12C (stereo not given) | 2.12 | 
24 | O=C(O)CNC(=O)c1cccc(I)c1 | 1.88 | 
25 | CCCCCCCC | 5.18 | 
26 | CCCCC(OC(Cc1ccccc1)C(=O)N1CCC(OCOC)CC1)C(=O)NC(CC1CCCCC1)C(O)CC(C(=O)NCCNc1n[nH]c(N)n1)C(C)C (stereo not given) | 4 | 
27 | CCOCCOCCOCC | 0.39 | 

Row | Compound | logP | solubility
28 | COc1c2ccoc2cc2oc(=O)ccc12 | 1.93 | 
29 | CCCCC(OC(Cc1ccccc1)C(=O)N1CCC(OCOC)CC1)C(=O)NC(CC1CCCCC1)C(O)CC(C(=O)NCCCNC(=NC#N)NC)C(C)C (stereo not given) | 4.4 | 
30 | Cc1ccc(C)c2c(C)cccc12 | 4.9 | 
31 | COP(=S)(OC)Oc1c(Cl)cccc1C#N | 3.58 | 
32 | CCC(CO)(CO)CO | -1.48 | 
33 | OCc1c2ccccc2cc2ccccc12 | 3.04 | 
34 | CCCCC(=O)OCC1OC(n2cnc3c(OC)ncnc32)C(OC(=O)CCCC)C1O (stereo not given) | 3.58 | 
35 | CC(=O)c1ccc2cc(C(C)C(=O)OCC(=O)N(C)C)ccc2c1 (stereo not given) | 2.05 | 
36 | CC(=O)OC1CCC(C(C)(C)C)CC1 (stereo not given) | 4.8 | 
37 | CCN(O)CC | -0.17 | 
38 | OCc1ccccc1Cl | 1.77 | 
39 | COC(=O)C1=C(C)NC(C)=C(C(=O)OCCN2CCN(C(c3ccccc3)c3ccccc3)CC2)C1c1cccc([N+](=O)[O-])c1 (stereo not given) | 5.2 | 
40 | Cc1ccc(OCCN(C)C)cc1 | 2.17 | 
41 | CCOC(=O)C1=C(COCCN)NC(C)=C(C(=O)OC)C1c1ccccc1Cl (stereo not given) | 3 | 
42 | Clc1c(Cl)c(Cl)c2c(Cl)c(Cl)c(Cl)c(Cl)c2c1Cl | 8.5 | 0.198 nM (≈ 0.08 ng/mL)
43 | N=C(N)NN=C1C=CC(=NNC(N)=S)C=C1 | 1.23 | 
44 | COc1cccc(N=c2snc3sc(S(N)(=O)=O)nn23)c1 | 2.66 | 
45 | COC(=O)c1ccc(Cl)cc1 | 2.87 | 
46 | CN1C(=O)CC(=O)N(c2ccccc2)c2cc(Cl)ccc21 | 2.12 | 
47 | CC1=C(C)C(=O)C=CC1=O | 1.23 | 
48 | CCCCCCOC(=O)C1=C=CC(=O)NC(=O)N1 | 1.76 | 
49 | Clc1cccc2c1Oc1c(Cl)c(Cl)c(Cl)c(Cl)c1O2 | 6.5 | 
50 | CC(=O)Nc1ncc2ncn(COCCO)c2n1 | -1.33 | 
51 | Cc1cccc(O[Si]23OCCN(CCO2)CCO3)c1 | 0.15 | 
52 | C=C(Br)CC1(C(C)CC)C(=O)NC(=O)NC1=O (stereo not given) | 2.2 | 
53 | CCC(C)C(NC(=O)c1cn(CC)c2nc(C)ccc2c1=O)C(=O)OC (stereo not given) | 3.15 | 
54 | O=c1[nH]c2ccccc2n1CCCN1CCC(n2c(=O)[nH]c3cc(Cl)ccc32)CC1 | 3.9 | 

Row | Compound | logP | solubility
55 | COc1cc([N+](=O)[O-])c2ncccc2c1 | 1.87 | 
56 | CC(=O)Nc1nc2c(ncn2COCCO)c(=O)[nH]1 | -1.3 | 
57 | CCCCCCNC(=O)CCC(NS(=O)(=O)c1ccc(C)cc1)C(=O)O (stereo not given) | 0.84 | 
58 | N[C@@H]1[C@H]2CN(c3nc4c(cc3F)c(=O)c(C(=O)O)cn4-c3ccc(F)cc3F)C[C@@H]12 | 0.31 | 
59 | CCCC(CCC)=NNC(=N)N | 1.73 | 
60 | CC(C)(C)c1cccc(OP(=O)(Oc2ccccc2)Oc2ccccc2)c1 | 5.12 | 
61 | CC(=O)Nc1cc(NS(=O)(=O)C(F)(F)F)c(C)cc1C | 2.02 | 
62 | O=CNc1nc(-c2ccc([N+](=O)[O-])o2)cs1 | -1.14 | 
63 | c1ccc2c(c1)[nH]c1cnccc12 | 3.17 | 
64 | Cc1ccc(Cl)cc1[N+](=O)[O-] | 3.05 | 
65 | Cc1ccc(C=[N+]([O-])c2ccccc2)cc1 | 2.41 | 
66 | O=P(O)(O)CN(CP(=O)(O)O)CP(=O)(O)O | -3.53 | 
67 | O=C(OCn1ncc2c(=O)[nH]cnc21)c1ccccc1 | 1.5 | 
68 | CC(C)CN(CC(C)C)N=O | 2.34 | 
69 | C[C@H](CSC(=O)c1ccccc1)C(=O)N1C[C@@H](Sc2ccccc2)C[C@H]1C(=O)O | 4.4 | 
70 | Cc1cccc(C)c1NC(=O)c1cc(S(N)(=O)=O)c(Cl)cc1O | 2.19 | 
71 | CCCCCOC(C)=O | 2.3 | 
72 | CCN1CCC(CNC(=O)c2cc(S(=O)(=O)CC)ccc2OC)C1 (stereo not given) | 1.31 | 
73 | CC(C)CCCCCCCOP(=O)(Oc1ccccc1)Oc1ccccc1 | 5.44 | 
74 | CC1CCC(=O)N1 (stereo not given) | -0.1 | 
75 | OCc1c(Cl)cccc1Cl | 2.02 | 
76 | CCCCCCC(C)=O | 2.37 | 
77 | CCCCOCCNc1ccccc1C(N)=O | 2.27 | 
78 | C=CCOc1ccccc1OCC(CNC(C)C)OC(=O)C=CC (stereo not given) | 3.65 | 
79 | COc1ccc2oc(N(N)CCC#N)nc2c1 | 0.98 | 
